Results reported in paper PMC2709206 (The Journal of neuroscience : the official journal of the …, 2008).
“And” between values parts separate entries of the source, which are not always exact repeats. Equal entries are not always repeated. Where two headings read alike, the source gives them in different places. One block for each molecule: values may come before it.

Experiments:
[1] = test system: DRG neurons from trpa1-/- mice; test: Calcium imaging of DRG neurons from trpa1-/- mice; format: cell-based; conditions: trpa1-/- mouse DRG neurons; percentage of response to 50 mM KCl
[2] = test system: rat DRG neurons; test: Calcium imaging of rat DRG neurons; format: cell-based; conditions: for capsaicin-sensitive DRG neurons that responded: 4-HNE 30 μM, 4-ONE 3 μM
[3] = test system: DRG neurons from trpa1+/+ mice; test: Calcium imaging of DRG neurons from trpa1+/+ mice; format: cell-based; conditions: trpa1+/+ mouse DRG neurons; percentage of response to 50 mM KCl
[4] = target: T1, mouse TRPA1 (Mus musculus, UniProt Q8BLA8); test: Voltage-clamp electrophysiology of TRPA1 CHO cells; format: cell-based; conditions: for membrane current in TRPA1 CHO cells: whole-cell, holding potential -60 mV
[5] = target: T1, mouse TRPA1; test: [Ca2+]i increase in TRPA1-expressing CHO cells; format: cell-based; conditions: for [Ca2+]i-increase in TRPA1 CHO cells: at concentrations <50 μM, data not shown; for TRPA1 activation: Rose Bengal at 5 μM, supplemental Fig. 2
[6] = target: human TRPV1 (Homo sapiens, UniProt Q8NER1); test: Responses in CHO cells expressing TRPV1; format: cell-based; conditions: data not shown
[7] = test system: wild-type mice; test: Nocifensive/pain behaviour after intraplantar injection, wild-type mice; format: in vivo, mouse; conditions: intraplantar 2.2 μmol H2O2 or 32 nmol 15d-PGJ2 in 25 μl, 3 min
[8] = test system: untransfected CHO cells; test: Responses; format: cell-based, Chinese hamster; conditions: data not shown
[9] = test system: trpa1-/- mice; test: Nocifensive/pain behaviour after intraplantar injection, trpa1-/- mice; format: in vivo, mouse; conditions: intraplantar 2.2 μmol H2O2 or 32 nmol 15d-PGJ2 in 25 μl, 3 min, compared with wild-type
[10] = test system: rat nodose neurons; test: Calcium imaging of rat nodose ganglion neurons; format: cell-based; conditions: for percentage of rat nodose neurons responding with [Ca2+]i increase: positive = at least 15% of response to 50 mM KCl, H2O2 5 mM, AITC 50 μM
[11] = test system: DRG neurons; test: Whole-cell voltage clamp of DRG neurons; format: cell-based, rat; conditions: voltage ramp
[12] = test system: DRG neurons from trpv1-/- mice; test: Calcium imaging of DRG neurons from trpv1-/- mice; format: cell-based, mouse; conditions: trpv1-/- mice (113 of 355)
[13] = test system: DRG neurons from wild-type mice; test: Calcium imaging of DRG neurons from wild-type mice; format: cell-based, mouse; conditions: wild-type mice (134 of 445)
[14] = test system: rat DRG neurons; conditions: ref Andersson et al., 2007; cited from earlier work

T1 sequence (Q8BLA8 whole entry): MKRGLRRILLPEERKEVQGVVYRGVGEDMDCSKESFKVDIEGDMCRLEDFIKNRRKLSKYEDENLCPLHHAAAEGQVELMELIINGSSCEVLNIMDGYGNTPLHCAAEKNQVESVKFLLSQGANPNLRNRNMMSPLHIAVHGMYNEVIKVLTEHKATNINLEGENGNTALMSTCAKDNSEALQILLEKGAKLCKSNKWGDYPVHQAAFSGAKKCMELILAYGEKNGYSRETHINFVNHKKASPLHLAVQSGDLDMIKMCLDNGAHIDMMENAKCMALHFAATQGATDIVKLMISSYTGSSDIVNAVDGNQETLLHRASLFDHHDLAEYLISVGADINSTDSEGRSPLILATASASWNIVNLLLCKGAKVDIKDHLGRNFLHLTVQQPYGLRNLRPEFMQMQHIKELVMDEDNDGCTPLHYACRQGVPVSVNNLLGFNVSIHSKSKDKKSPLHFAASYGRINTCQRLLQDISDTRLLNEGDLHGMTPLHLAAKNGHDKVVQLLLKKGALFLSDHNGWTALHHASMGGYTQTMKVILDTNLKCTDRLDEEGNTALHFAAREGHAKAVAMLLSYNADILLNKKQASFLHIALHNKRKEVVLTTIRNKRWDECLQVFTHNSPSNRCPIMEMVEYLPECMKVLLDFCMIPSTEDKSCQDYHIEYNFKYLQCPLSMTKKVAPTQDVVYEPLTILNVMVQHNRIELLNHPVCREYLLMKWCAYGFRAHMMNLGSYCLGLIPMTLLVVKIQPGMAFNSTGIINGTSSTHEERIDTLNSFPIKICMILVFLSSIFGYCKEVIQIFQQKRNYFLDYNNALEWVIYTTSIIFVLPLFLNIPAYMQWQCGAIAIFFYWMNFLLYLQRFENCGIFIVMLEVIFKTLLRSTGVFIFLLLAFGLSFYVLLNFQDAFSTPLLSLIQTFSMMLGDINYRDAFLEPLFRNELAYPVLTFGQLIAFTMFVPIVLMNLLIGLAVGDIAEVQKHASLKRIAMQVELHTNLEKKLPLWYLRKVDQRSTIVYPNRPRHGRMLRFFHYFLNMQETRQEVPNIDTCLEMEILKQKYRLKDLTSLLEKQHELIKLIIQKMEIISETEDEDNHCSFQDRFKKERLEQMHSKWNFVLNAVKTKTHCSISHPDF
Chain of human TRPV1 (Q8NER1 whole entry): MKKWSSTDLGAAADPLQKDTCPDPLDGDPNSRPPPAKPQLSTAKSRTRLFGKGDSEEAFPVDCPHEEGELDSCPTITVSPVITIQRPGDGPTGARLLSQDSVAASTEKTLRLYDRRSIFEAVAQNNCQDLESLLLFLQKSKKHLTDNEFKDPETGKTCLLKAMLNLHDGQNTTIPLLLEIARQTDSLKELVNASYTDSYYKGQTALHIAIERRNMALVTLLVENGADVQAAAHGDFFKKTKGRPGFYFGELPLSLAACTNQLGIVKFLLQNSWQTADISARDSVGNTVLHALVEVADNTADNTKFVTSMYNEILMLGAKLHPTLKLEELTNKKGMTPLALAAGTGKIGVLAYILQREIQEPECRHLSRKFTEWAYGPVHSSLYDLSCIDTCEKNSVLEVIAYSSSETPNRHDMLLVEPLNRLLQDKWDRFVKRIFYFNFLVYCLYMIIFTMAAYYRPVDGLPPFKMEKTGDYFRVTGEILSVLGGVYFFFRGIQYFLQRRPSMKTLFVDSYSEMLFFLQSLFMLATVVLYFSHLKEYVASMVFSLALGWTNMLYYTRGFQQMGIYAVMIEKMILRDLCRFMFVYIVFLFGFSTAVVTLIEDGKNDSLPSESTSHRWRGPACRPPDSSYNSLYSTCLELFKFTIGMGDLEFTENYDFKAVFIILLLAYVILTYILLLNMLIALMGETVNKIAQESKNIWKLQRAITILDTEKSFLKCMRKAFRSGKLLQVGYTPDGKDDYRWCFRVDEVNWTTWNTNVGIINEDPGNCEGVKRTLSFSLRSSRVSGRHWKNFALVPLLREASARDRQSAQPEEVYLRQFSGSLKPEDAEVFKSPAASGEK

Compound: CCCCC/C=C\C=C1\C(=O)CC[C@@H]1C/C=C\CCCC(=O)O [9,10-dihydro-15d-PGJ2]
- [Ca2+]i-increase in TRPA1 CHO cells [5]: failed to elicit any significant [Ca^2+]i-increase

Compound: C=CCN=C=S [AITC, allyl isothiocyanate]
- Response amplitude (% of K+) [1]: 21%
- Response amplitude (% of K+) [3]: 86%
- percentage of rat nodose neurons responding with [Ca2+]i increase [10]: 54.0%

Compound: CCCCC[C@H](O)/C=C/[C@H]1C=CC(=O)[C@@H]1C/C=C\CCCC(=O)O [PGA2]
- [Ca2+]i-increase in TRPA1 CHO cells [5]: failed to elicit any significant [Ca^2+]i-increase

Compound: CC1CCC(C(C)C)C(O)C1 (stereo not shown) [menthol]
- percentage of sensitive DRG neurons in DRG cultures [14]: ~ 8%

Second part, led by results:

- membrane current in TRPA1 CHO cells [4]: evoked membrane currents
Compound: CCCCCC(O)/C=C/C=O (stereo not shown) [4-HNE, 4-hydroxynonenal]
- Response amplitude (% of K+) [1]: 34%
- capsaicin-sensitive DRG neurons that responded [2]: Approximately 50%
- Response amplitude (% of K+) [3]: 61%

- EC50 [5]: 1.9 µM
Compound: CCCCCC(=O)C=CC=O [4-ONE, 4-oxo-2-nonenal]
- Response amplitude (% of K+) [1]: 34%
- capsaicin-sensitive DRG neurons that responded [2]: Approximately 50%
- Response amplitude (% of K+) [3]: 89%

- [Ca2+]i increase / membrane currents in TRPV1 expressing CHO cells [6]: had no effect
- membrane current in TRPA1 CHO cells [4]: evoked inward currents
Compound: CCCCCC=CC=C1C(=O)C=C[C@@H]1CC=CCCCC(=O)O [15d-PGJ2, 15-deoxy-Δ^12,14-prostaglandin J2]
- Response amplitude (% of K+) [1]: 47%
- Response amplitude (% of K+) [3]: 63%
- nocifensive/pain-related behaviour [7]: marked nocifensive behaviors
- [Ca2+]i increase / membrane currents in untransfected CHO cells [8]: had no effect
- nocifensive/pain-related behaviour [9]: greatly reduced or absent

- reversal of [Ca2+]i response by dithiothreitol (DTT) ([5]; DTT 1 mM): reversed
- EC50 lower / potency increased in Fe2+-loaded vs untreated cells ([5]; TRPA1 CHO cells, after 90 s): ~ 20 fold and 20 fold
- concentrations that activate TRPA1 ([5]; extracellularly applied): 50 to 100 µM
- EC50 ([5]; read-out: EC50, increase in [Ca2+]i in Fe2+-loaded cells, TRPA1 CHO cells preloaded with 100 μM FeSO4 for 1 h, after 90 s): 53 ± 6 µM
- EC50 ([5]; read-out: EC50, increase in [Ca2+]i, TRPA1 CHO cells, after 90 s exposure): 1200 ± 400 µM
- EC50 ([5]; read-out: EC50, increase in [Ca2+]i, TRPA1 CHO cells, after 600 s exposure (plateau)): 230 µM
- reversal potential of evoked current ([4]; TRPA1 CHO cells, voltage ramp, calcium-free solution): ~0 mV
- single-channel chord conductance ([4]; cell-attached patches, -100 to +100 mV): 94 ± 3 pS
- membrane current in TRPA1 CHO cells [4]: evoked an inward current
Compound: OO [H2O2, hydrogen peroxide]
- Response amplitude (% of K+) [1]: 31%
- capsaicin-sensitive DRG neurons that did not respond ([2]; rat DRG neurons, calcium imaging): ~ 50%
- reversal potential of evoked current [11]: -6 mV
- proportion of sensitive DRG neurons [12]: 31.8%
- proportion of sensitive DRG neurons [13]: 30.1%
- Response amplitude (% of K+) [3]: 70%
- nocifensive/pain-related behaviour [7]: marked nocifensive behaviors
- currents in untransfected CHO cells ([8]; concentrations up to 100 mM): failed to evoke currents
- nocifensive/pain-related behaviour [9]: greatly reduced or absent
- percentage of rat nodose neurons responding with [Ca2+]i increase [10]: 49.8%
- capsaicin-sensitive nodose neurons that did not respond ([10]; rat nodose neurons, calcium imaging): ~ 30%

- TRPA1 activation [5]: activated
Compound: O=C([O-])c1c(Cl)c(Cl)c(Cl)c(Cl)c1-c1c2cc(I)c(=O)c(I)c-2oc2c(I)c([O-])c(I)cc12.[Na+].[Na+] [Rose Bengal]

- TRPA1 activation [5]: activated
Compound: Cc1ccc(S(=O)(=O)NCl)cc1 [chloramine T]
